The kinase profiling compilation of Christmann-Franck et al. (2016)

Columns and labels:
ATR (human) = ATR (human) (UniProt Q13535); test: Alphascreen
[1] = tested on: ABL1 (human), P00519 [E255K]; test: KINOMEscan competition binding; details: compound 1.0 µM
[2] = tested on: ABL1 (human), P00519 [H396P]; test: KINOMEscan competition binding; details: compound 1.0 µM
ADCK4 (human) = ADCK4 (human) (UniProt Q96D53); test: KINOMEscan competition binding; details: compound 1.0 µM
AURKC (human) = AURKC (human) (UniProt Q9UQB9); test: KINOMEscan competition binding; details: compound 1.0 µM
[3] = tested on: BRAF (human), P15056 [V600E]; test: KINOMEscan competition binding; details: compound 1.0 µM
BRSK2 (human) = BRSK2 (human) (UniProt Q8IWQ3); test: KINOMEscan competition binding; details: compound 1.0 µM
CDKL2 (human) = CDKL2 (human) (UniProt Q92772); test: KINOMEscan competition binding; details: compound 1.0 µM
CLK2 (human) = CLK2 (human) (UniProt P49760); test: KINOMEscan competition binding; details: compound 1.0 µM
CLK4 (human) = CLK4 (human) (UniProt Q9HAZ1); test: KINOMEscan competition binding; details: compound 1.0 µM
CSK (human) = CSK (human) (UniProt P41240); test: KINOMEscan competition binding; details: compound 1.0 µM
CSNK2A2 (human) = CSNK2A2 (human) (UniProt P19784); test: KINOMEscan competition binding; details: compound 1.0 µM
DYRK1B (human) = DYRK1B (human) (UniProt Q9Y463); test: KINOMEscan competition binding; details: compound 1.0 µM
EPHA3 (human) = EPHA3 (human) (UniProt P29320); test: KINOMEscan competition binding; details: compound 1.0 µM
[4] = tested on: FLT3 (human), P36888 [N841I]; test: KINOMEscan competition binding; details: compound 1.0 µM
GRK1 (human) = GRK1 (human) (UniProt Q15835); test: KINOMEscan competition binding; details: compound 1.0 µM
IGF1R (human) = IGF1R (human) (UniProt P08069); test: KINOMEscan competition binding; details: compound 1.0 µM
IRAK1 (human) = IRAK1 (human) (UniProt P51617); test: KINOMEscan competition binding; details: compound 1.0 µM
LCK (human) = LCK (human) (UniProt P06239); test: KINOMEscan competition binding; details: compound 1.0 µM
MAP3K1 (human) = MAP3K1 (human) (UniProt Q13233); test: KINOMEscan competition binding; details: compound 1.0 µM
MAP3K13 (human) = MAP3K13 (human) (UniProt O43283); test: KINOMEscan competition binding; details: compound 1.0 µM
MAP3K2 (human) = MAP3K2 (human) (UniProt Q9Y2U5); test: KINOMEscan competition binding; details: compound 1.0 µM
MAP3K5 (human) = MAP3K5 (human) (UniProt Q99683); test: KINOMEscan competition binding; details: compound 1.0 µM
MAP4K3 (human) = MAP4K3 (human) (UniProt Q8IVH8); test: KINOMEscan competition binding; details: compound 1.0 µM
MAPK15 (human) = MAPK15 (human) (UniProt Q8TD08); test: KINOMEscan competition binding; details: compound 1.0 µM
MAPK6 (human) = MAPK6 (human) (UniProt Q16659); test: KINOMEscan competition binding; details: compound 1.0 µM
NEK7 (human) = NEK7 (human) (UniProt Q8TDX7); test: KINOMEscan competition binding; details: compound 1.0 µM
NTRK1 (human) = NTRK1 (human) (UniProt P04629); test: KINOMEscan competition binding; details: compound 1.0 µM
PAK7 (human) = PAK7 (human) (UniProt Q9P286); test: KINOMEscan competition binding; details: compound 1.0 µM
PIM3 (human) = PIM3 (human) (UniProt Q86V86); test: KINOMEscan competition binding; details: compound 1.0 µM
PKN1 (human) = PKN1 (human) (UniProt Q16512); test: KINOMEscan competition binding; details: compound 1.0 µM
PRKCD (human) = PRKCD (human) (UniProt Q05655); test: KINOMEscan competition binding; details: compound 1.0 µM
PRKCH (human) = PRKCH (human) (UniProt P24723); test: KINOMEscan competition binding; details: compound 1.0 µM
PRKX (human) = PRKX (human) (UniProt P51817); test: KINOMEscan competition binding; details: compound 1.0 µM
RAF1 (human) = RAF1 (human) (UniProt P04049); test: KINOMEscan competition binding; details: compound 1.0 µM
ROCK2 (human) = ROCK2 (human) (UniProt O75116); test: KINOMEscan competition binding; details: compound 1.0 µM
RPS6KA4 KD2 (human) = RPS6KA4 KD2 (human) (UniProt O75676); test: KINOMEscan competition binding; details: compound 1.0 µM
TGFBR1 (human) = TGFBR1 (human) (UniProt P36897); test: KINOMEscan competition binding; details: compound 1.0 µM
WEE1 (human) = WEE1 (human) (UniProt P30291); test: KINOMEscan competition binding; details: compound 1.0 µM
WEE2 (human) = WEE2 (human) (UniProt P0C1S8); test: KINOMEscan competition binding; details: compound 1.0 µM
ZAP70 (human) = ZAP70 (human) (UniProt P43403); test: KINOMEscan competition binding; details: compound 1.0 µM

Sequence of WEE1 (human) (P30291 whole entry, looked up): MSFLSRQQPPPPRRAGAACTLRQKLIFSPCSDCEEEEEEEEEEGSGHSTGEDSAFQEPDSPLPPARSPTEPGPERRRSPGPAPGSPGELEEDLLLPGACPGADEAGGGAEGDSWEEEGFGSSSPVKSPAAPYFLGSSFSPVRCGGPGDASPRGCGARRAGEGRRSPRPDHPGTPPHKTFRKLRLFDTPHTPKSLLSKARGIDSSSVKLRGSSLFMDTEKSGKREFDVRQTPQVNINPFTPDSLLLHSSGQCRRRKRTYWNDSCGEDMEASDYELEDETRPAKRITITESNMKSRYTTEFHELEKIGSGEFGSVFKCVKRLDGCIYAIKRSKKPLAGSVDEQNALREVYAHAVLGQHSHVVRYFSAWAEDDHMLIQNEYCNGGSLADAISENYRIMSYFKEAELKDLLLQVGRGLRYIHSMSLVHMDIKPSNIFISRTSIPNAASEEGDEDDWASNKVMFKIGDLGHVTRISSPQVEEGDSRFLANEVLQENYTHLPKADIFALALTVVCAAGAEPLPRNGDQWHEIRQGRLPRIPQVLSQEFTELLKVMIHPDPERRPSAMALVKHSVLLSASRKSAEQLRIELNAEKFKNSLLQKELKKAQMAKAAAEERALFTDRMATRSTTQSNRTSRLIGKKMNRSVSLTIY
Sequence of MAP3K5 (human) (Q99683 whole entry, looked up): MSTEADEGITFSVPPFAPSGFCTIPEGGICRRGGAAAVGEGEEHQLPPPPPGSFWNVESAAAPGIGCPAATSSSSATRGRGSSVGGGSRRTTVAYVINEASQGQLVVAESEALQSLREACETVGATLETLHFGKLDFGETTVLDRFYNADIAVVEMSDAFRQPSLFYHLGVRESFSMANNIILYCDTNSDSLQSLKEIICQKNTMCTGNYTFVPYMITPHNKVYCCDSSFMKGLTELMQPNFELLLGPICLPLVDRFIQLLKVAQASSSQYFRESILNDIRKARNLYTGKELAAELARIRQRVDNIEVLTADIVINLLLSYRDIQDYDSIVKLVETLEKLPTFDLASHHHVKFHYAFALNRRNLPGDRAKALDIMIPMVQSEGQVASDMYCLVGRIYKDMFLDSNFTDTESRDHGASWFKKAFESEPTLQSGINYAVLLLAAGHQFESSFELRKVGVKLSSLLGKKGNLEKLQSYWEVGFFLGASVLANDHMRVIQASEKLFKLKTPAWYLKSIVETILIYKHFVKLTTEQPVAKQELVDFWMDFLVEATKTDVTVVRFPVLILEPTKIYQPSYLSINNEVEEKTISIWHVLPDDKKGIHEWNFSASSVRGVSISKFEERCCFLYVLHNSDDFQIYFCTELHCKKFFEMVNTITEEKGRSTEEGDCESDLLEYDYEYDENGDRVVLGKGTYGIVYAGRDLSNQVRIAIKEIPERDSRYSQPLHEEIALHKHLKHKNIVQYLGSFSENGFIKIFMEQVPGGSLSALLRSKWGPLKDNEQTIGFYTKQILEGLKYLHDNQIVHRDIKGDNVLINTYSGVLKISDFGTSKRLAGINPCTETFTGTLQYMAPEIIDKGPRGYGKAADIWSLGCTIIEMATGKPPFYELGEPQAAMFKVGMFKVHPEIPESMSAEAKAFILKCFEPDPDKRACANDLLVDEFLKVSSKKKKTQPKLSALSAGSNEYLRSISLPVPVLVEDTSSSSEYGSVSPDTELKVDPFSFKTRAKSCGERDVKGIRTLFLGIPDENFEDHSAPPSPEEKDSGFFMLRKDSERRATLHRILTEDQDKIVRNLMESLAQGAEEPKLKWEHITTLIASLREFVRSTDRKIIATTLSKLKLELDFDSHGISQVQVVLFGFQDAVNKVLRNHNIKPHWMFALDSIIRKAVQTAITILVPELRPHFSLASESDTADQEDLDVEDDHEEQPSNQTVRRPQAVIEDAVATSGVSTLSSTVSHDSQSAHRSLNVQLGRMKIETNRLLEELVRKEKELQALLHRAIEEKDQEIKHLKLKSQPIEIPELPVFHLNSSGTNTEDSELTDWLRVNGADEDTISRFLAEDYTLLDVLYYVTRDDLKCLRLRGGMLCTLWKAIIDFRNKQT
Sequence of AURKC (human) (Q9UQB9 whole entry, looked up): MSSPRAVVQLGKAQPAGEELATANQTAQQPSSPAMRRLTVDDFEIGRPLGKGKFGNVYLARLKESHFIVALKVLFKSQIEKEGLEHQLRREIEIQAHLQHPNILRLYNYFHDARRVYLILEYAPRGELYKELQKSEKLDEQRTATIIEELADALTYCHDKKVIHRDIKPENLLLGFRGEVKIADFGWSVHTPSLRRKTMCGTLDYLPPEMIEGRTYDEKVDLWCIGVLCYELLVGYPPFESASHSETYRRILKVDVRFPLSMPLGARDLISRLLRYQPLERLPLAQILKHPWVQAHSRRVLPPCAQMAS
Sequence of CDKL2 (human) (Q92772 whole entry, looked up): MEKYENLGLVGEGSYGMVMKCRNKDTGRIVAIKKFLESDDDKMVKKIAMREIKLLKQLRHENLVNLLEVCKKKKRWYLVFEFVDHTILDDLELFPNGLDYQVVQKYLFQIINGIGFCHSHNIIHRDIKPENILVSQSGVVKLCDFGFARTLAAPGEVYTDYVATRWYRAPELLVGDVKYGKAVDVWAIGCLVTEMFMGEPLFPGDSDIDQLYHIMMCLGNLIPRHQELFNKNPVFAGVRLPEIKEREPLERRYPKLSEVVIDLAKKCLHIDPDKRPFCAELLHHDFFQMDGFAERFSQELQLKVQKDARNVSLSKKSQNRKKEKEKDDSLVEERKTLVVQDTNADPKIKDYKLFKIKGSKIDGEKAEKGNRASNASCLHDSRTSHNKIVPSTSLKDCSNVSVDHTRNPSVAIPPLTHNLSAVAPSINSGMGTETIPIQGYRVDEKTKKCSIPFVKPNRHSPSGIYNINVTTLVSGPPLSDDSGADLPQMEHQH
Sequence of BRAF (human), P15056 [V600E] (P15056 whole entry V600E, looked up): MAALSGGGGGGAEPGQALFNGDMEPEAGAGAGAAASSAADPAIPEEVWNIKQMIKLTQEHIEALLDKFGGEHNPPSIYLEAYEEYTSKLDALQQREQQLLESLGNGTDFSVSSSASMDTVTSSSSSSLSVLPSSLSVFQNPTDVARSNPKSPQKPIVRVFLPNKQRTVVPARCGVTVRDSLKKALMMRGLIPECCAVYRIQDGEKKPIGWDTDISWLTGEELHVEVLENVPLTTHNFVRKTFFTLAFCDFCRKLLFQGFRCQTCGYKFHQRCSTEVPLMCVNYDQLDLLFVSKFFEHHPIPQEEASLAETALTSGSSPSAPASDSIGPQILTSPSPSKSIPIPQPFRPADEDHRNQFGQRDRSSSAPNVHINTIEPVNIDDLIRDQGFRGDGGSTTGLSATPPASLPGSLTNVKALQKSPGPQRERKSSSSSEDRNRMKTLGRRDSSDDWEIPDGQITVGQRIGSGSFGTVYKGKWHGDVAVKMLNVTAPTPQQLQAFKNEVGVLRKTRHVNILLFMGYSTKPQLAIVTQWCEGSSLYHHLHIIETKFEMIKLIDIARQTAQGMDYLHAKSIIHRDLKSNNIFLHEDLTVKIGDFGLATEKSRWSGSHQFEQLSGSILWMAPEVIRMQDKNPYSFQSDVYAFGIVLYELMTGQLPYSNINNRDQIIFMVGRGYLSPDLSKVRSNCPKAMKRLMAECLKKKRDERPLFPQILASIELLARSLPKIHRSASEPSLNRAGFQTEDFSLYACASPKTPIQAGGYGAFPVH
Sequence of CLK2 (human) (P49760 whole entry, looked up): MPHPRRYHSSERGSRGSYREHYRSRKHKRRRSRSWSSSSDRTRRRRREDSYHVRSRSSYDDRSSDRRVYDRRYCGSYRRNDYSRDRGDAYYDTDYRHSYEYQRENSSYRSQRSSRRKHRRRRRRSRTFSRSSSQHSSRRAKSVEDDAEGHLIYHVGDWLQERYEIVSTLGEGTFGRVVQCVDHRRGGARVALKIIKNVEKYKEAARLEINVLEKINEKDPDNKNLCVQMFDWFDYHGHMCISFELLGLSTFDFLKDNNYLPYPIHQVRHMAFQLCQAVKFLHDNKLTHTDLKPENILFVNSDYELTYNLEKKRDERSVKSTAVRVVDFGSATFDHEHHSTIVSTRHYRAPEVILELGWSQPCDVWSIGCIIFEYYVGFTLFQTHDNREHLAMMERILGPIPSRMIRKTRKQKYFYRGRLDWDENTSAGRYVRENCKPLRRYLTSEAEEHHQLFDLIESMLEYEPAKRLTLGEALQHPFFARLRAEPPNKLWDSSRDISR
Sequence of PRKX (human) (P51817 whole entry, looked up): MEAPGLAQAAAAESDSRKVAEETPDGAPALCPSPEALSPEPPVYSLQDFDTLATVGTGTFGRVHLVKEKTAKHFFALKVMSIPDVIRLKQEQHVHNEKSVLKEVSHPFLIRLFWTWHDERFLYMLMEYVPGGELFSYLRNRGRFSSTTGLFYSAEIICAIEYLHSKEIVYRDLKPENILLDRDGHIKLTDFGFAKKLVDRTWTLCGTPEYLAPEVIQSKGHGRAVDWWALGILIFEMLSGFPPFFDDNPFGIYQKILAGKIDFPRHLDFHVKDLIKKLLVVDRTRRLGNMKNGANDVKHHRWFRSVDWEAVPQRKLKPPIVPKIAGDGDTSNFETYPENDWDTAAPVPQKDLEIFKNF
Sequence of MAPK15 (human) (Q8TD08 whole entry, looked up): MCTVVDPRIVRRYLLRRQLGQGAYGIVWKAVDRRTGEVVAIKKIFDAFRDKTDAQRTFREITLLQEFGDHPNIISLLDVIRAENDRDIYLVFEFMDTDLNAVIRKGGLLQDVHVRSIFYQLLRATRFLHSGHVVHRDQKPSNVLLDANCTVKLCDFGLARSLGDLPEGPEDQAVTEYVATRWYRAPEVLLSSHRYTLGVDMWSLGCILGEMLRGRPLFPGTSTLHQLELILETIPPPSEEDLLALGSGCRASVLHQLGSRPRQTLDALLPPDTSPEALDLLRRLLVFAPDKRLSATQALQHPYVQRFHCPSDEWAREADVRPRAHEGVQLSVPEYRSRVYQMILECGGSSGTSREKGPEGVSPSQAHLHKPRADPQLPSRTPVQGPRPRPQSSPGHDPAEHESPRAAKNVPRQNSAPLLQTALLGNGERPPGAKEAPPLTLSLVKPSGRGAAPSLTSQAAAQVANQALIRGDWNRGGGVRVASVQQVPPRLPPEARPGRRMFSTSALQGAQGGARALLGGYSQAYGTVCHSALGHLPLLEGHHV

IC50 (ATR (human)): 8.09 µM
inhibition of binding [1]: 0%
inhibition of binding [2]: 0%
inhibition of binding (ADCK4 (human)): 0%
inhibition of binding (AURKC (human)): 0%
inhibition of binding [3]: 17%
inhibition of binding (BRSK2 (human)): 0%
inhibition of binding (CDKL2 (human)): 0%
inhibition of binding (CLK2 (human)): 0%
inhibition of binding (CLK4 (human)): 70%
inhibition of binding (CSK (human)): 8%
inhibition of binding (CSNK2A2 (human)): 2%
inhibition of binding (DYRK1B (human)): 0%
inhibition of binding (EPHA3 (human)): 0%
inhibition of binding [4]: 6%
inhibition of binding (GRK1 (human)): 0%
inhibition of binding (IGF1R (human)): 0%
inhibition of binding (IRAK1 (human)): 12%
inhibition of binding (LCK (human)): 0%
inhibition of binding (MAP3K1 (human)): 0%
inhibition of binding (MAP3K13 (human)): 0%
inhibition of binding (MAP3K2 (human)): 0%
inhibition of binding (MAP3K5 (human)): 1%
inhibition of binding (MAP4K3 (human)): 0%
inhibition of binding (MAPK6 (human)): 0%
inhibition of binding (NEK7 (human)): 0%
inhibition of binding (NTRK1 (human)): 4%
inhibition of binding (PAK7 (human)): 0%
inhibition of binding (PIM3 (human)): 5%
inhibition of binding (PKN1 (human)): 0%
inhibition of binding (PRKCD (human)): 4%
inhibition of binding (PRKCH (human)): 0%
inhibition of binding (PRKX (human)): 0%
inhibition of binding (RAF1 (human)): 7%
inhibition of binding (ROCK2 (human)): 0%
inhibition of binding (RPS6KA4 KD2 (human)): 0%
inhibition of binding (TGFBR1 (human)): 4%
inhibition of binding (WEE1 (human)): 2%
inhibition of binding (WEE2 (human)): 0%
inhibition of binding (ZAP70 (human)): 4%
Compound: Nc1cc(C(F)(F)F)c(-c2cc(N3CCOCC3)nc(N3CCOCC3)n2)cn1
inhibition of binding (MAPK15 (human)): 2%
